Activity calls are given as the source filed them. How the calls were made is not given here.
What was measured:
[1] = target: T1, Ferrochelatase, mitochondrial (Homo sapiens) (UniProt P22830); conditions: at 10 µM
T1 sequence (whole entry): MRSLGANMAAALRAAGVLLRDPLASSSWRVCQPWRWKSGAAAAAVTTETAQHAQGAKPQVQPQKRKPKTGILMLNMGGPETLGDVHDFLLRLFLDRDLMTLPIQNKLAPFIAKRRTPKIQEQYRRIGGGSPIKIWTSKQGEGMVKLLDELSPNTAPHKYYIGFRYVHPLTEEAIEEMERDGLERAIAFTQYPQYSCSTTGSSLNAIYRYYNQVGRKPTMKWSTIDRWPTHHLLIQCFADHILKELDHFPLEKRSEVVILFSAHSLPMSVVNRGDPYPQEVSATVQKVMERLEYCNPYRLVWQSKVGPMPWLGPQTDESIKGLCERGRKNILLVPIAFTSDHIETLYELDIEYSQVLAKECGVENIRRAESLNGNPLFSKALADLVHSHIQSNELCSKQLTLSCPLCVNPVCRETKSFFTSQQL
Description: Compound was evaluated for the inhibition of human FECH at 10uM

[2] = target: T2, Porphobilinogen deaminase (Homo sapiens) (UniProt P08397); conditions: at 100 µM
T2 sequence (whole entry): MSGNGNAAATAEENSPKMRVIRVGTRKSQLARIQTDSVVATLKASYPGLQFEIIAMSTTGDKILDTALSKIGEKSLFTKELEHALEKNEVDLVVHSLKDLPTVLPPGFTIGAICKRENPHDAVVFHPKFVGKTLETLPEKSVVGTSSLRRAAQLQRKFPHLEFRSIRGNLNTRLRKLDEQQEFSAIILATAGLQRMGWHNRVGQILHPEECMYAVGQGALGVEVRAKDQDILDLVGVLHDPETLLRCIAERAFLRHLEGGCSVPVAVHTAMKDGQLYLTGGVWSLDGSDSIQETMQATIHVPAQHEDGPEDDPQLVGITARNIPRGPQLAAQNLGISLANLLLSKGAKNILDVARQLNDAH
Description: Compound was evaluated for the inhibition of human HMBS at 100uM

Row | SMILES | inhibition [1] | inhibition [2]
1 | COc1ccccc1C(C)NCC(=O)Nc1cc(C(F)(F)F)ccc1Cl (stereo not drawn) | inactive | inactive
2 | O=C(N[C@H](Cc1ccccc1)C(=O)Nc1ccccc1N1CCOCC1)c1cccs1 | inactive | inactive
3 | O=C(CN1CCOCC1)Nc1ccc2ncnc(Nc3ccc(OCc4cccc(F)c4)c(Cl)c3)c2c1 | inactive | inactive
4 | CCN(CC)CCCCCCNc1cc(OC)cc2c(C)ccnc12 | inactive | inactive
5 | FC(F)(F)c1cnc(Sc2nnc(-c3ccncc3)o2)c(Cl)c1 | inactive | inactive
6 | CCCn1nnc(NC(=O)COc2ccc(C3CCCCC3)cc2)n1 | inactive | inactive
7 | COC(=O)Nc1nc2cc(C(=O)c3ccccc3)ccc2[nH]1 | inactive | inactive
8 | COc1ccc(-c2onc(C(F)(F)F)c2-c2ccc(Cl)cc2)c(O)c1 | inactive | inactive
9 | C[C@H]1COc2c(N3CCN(C)CC3)c(F)cc3c(=O)c(C(=O)O)cn1c23 | inactive | inactive
10 | COc1ccc(OC(C)C(=O)Nc2ccc(Cl)cc2C)cc1 (stereo not drawn) | inactive | inactive
11 | CNC1C(OC2C(OC3C(O)C(O)C(N=C(N)N)C(O)C3N=C(N)N)OC(C)C2(O)C=O)OC(CO)C(O)C1O (stereo not drawn) | inactive | inactive
12 | Clc1cccc(CO[C@H]2CCc3ccccc3[C@@H]2n2ccnn2)c1 | inactive | inactive
13 | CCNC(=O)C(C)Nc1nc(-c2cccnc2)nc2sc(C)c(C)c12 (stereo not drawn) | inactive | inactive
14 | COc1ccc(-c2cncc3ccc(C(=O)NCCCn4ccnc4)nc23)cc1 | inactive | inactive
15 | CCOC(=O)c1c(NC(=O)c2c(F)c(F)c(F)c(F)c2F)sc(C(N)=O)c1C | inactive | inactive
16 | CC[C@@H]([C@H](C)O)n1ncn(-c2ccc(N3CCN(c4ccc(OC[C@@H]5CO[C@@](Cn6cncn6)(c6ccc(F)cc6F)C5)cc4)CC3)cc2)c1=O | inactive | inactive
17 | Nc1nccc2ccc(Oc3ccncc3)cc12 | inactive | inactive
18 | CC1CS(=O)(=O)CCN1/N=C/c1ccc([N+](=O)[O-])o1 (stereo not drawn) | inactive | inactive
19 | Cc1ccc(C(=O)Nc2ccc(S(=O)(=O)O)c3cc(S(=O)(=O)O)cc(S(=O)(=O)O)c23)cc1NC(=O)c1cccc(NC(=O)Nc2cccc(C(=O)Nc3cc(C(=O)Nc4ccc(S(=O)(=O)O)c5cc(S(=O)(=O)O)cc(S(=O)(=O)O)c45)ccc3C)c2)c1 | inactive | inactive
20 | FC(F)(F)c1cccc(-c2nc3c(NCc4ccncc4)nccc3[nH]2)c1 | inactive | inactive
21 | Nc1ncnc2c1ncn2C[C@@H](O)[C@@H](O)C(=O)O | inactive | inactive
22 | CC1CCCN(C(=O)C(C)Nc2cc(Cl)ccc2N2CCOCC2)C1 (stereo not drawn) | inactive | inactive

Row | SMILES | inhibition [1] | inhibition [2]
23 | CC(C)(C)c1cc(C(=O)Nc2cccnc2)cc(C(=O)Nc2cccnc2)c1 | inactive | inactive
24 | C[C@]1(O)C[C@@H](c2nc(-c3ccc4ccc(-c5ccccc5)nc4c3)c3c(N)nccn32)C1 | inactive | inactive
25 | CCc1nc2ccccc2n1CC(O)COc1cc(C)ccc1Cl (stereo not drawn) | inactive | inactive
26 | Cc1cc(C)n(-c2ccc(NC(=O)C3CCN(Cc4cnc(C)s4)CC3)cc2)n1 | inactive | inactive
27 | CCc1nn(C)c(C(=O)NCc2ccc(Oc3ccc(C)cc3)cc2)c1Cl | inactive | inactive
28 | Cc1nc(-c2cccc(NCc3ccccc3)c2)[nH]c1C | inactive | inactive
29 | Cc1ccc(NC(=O)CC2COc3ccccc3O2)cc1Cl (stereo not drawn) | inactive | inactive
30 | Cc1cc(C(=O)Nc2ccc(-c3ccccc3)cc2)no1 | inactive | inactive
31 | CCOc1ccccc1NC(C)C(=O)Nc1cc(C(F)(F)F)ccc1N1CCOCC1 (stereo not drawn) | inactive | inactive
32 | Cc1cccc(C(=O)Nc2ccnc(N(C)C3CCN(CC(C)C)CC3)c2)c1 | inactive | inactive
33 | O=C(Nc1ccc(F)c(-c2nc3cc(-c4ccccc4)cnc3[nH]2)c1)N1CCCC1 | inactive | inactive
34 | COc1ccc(CCN2CCC(NCc3cccc(N(C)C)c3)CC2)cc1 | inactive | inactive
35 | Brc1c(-c2ccc3c(c2)OCO3)nc2ncccn12 | inactive | inactive
36 | Brc1cncc(-c2cc(NCCCn3ccnc3)nc(-c3ccccc3)n2)c1 | inactive | inactive
37 | COc1ccc(-c2nc(-c3cccc(NC(=O)Cc4ccc(F)cc4)c3)no2)cc1OC | inactive | inactive
38 | c1cc(C2=NCCN2)cc(-c2cc(-c3ccc(C4=NCCN4)cc3)no2)c1 | inactive | inactive
39 | Cc1cc(C)nc(-n2nc(C)cc2Nc2ccccc2)n1 | inactive | inactive
40 | c1ccc(Oc2ccc(-c3cncc(-c4ccc5[nH]ccc5c4)n3)cc2)cc1 | inactive | inactive
41 | Cc1ccc(NC(=O)c2cc(S(=O)(=O)NC(C)(C)C)ccc2C)nc1 | inactive | inactive
42 | C[C@H]1c2cccc(O)c2C(=O)C2=C(O)[C@]3(O)C(=O)C(C(N)=O)=C(O)[C@@H](N(C)C)[C@@H]3[C@@H](O)[C@@H]21 | inactive | inactive
43 | COc1ccc(Nc2ccccc2NC(=O)c2ccc(O)nc2)cc1 | inactive | inactive
44 | COc1nc2ccc(Br)cc2cc1[C@@H](c1ccccc1)[C@@](O)(CCN(C)C)c1cccc2ccccc12 | inactive | inactive

Row | SMILES | inhibition [1] | inhibition [2]
45 | COc1cccc(-n2nnnc2S(=O)(=O)Cc2ccccc2)c1 | inactive | inactive
46 | Nc1ncnc2c1ncn2[C@@H]1O[C@H](COS(=O)(=O)NC(=O)c2ccccc2O)[C@@H](O)[C@H]1O | inactive | inactive
47 | Nc1ncnc2[nH]nc(Cc3cccc4ccccc34)c12 | inactive | inactive
48 | COc1ccc(OC)c(NCc2ccc3nc(N)nc(N)c3c2Cl)c1 | inactive | inactive
49 | CC(Oc1cccc(Cl)c1)C(=O)Nc1ccc2oc(-c3ccncc3)nc2c1 (stereo not drawn) | inactive | inactive
50 | CN(C)c1cc(NC(=O)Nc2ccccc2)c2ccccc2n1 | inactive | inactive
51 | C[C@H](C(N)=O)N1CCCC[C@@H]1c1ccc(OCc2cccc(F)c2)cc1 | inactive | inactive
52 | CC(C)(C)c1cnc(NC(=O)c2ccccc2O)s1 | inactive | inactive
53 | COC(=O)C1=C(C)NC(C)=C(C(=O)OC(C)C)C1c1cccc2nonc12 (stereo not drawn) | inactive | inactive
54 | CC(C)(C)c1cc(C(=O)N2CCN(c3nccnc3C#N)CC2)n(Cc2ccccc2)n1 | inactive | inactive
55 | O=C(Nc1nc(-c2ccccn2)cs1)C1CC1c1ccccc1F (stereo not drawn) | inactive | inactive
56 | CCc1nc2ccc(Cl)cn2c1C(=O)NCc1ccc(N2CCC(c3ccc(OC(F)(F)F)cc3)CC2)cc1 | inactive | inactive
57 | CC1COC2(CCN(c3nc(=O)c4cc(C(F)(F)F)cc([N+](=O)[O-])c4s3)CC2)O1 (stereo not drawn) | inactive | inactive
58 | N=C(N)Nc1ccc(-c2ccc(-c3ccc(NC(=N)N)cc3Cl)o2)c(Cl)c1 | inactive | inactive
59 | CCOC(=O)c1noc(N)c1-c1ccccc1 | inactive | inactive
60 | Cc1cccc(NC(=O)c2cc(S(=O)(=O)N(C)c3ccc(F)cc3)ccc2Cl)n1 | inactive | inactive
61 | Cc1nnc(NC(=O)c2cn(-c3ccccc3)nc2-c2ccccc2C)o1 | inactive | inactive
62 | Cc1cc(C)c2cc(C(=O)NC3CCCCCCC3)[nH]c2c1 | inactive | inactive
63 | COc1cc(C2=NCCN2)ccc1-n1cc(-c2cccc(C3=NCCN3)c2)nn1 | inactive | inactive
64 | COc1ccc(Cl)cc1NC(=O)CN(C)C(=O)c1cnn(-c2ccccc2)n1 | inactive | inactive
